These compounds were tested on firefly luciferase activity (assay: Dual-Glo firefly/renilla luciferase reporter assay in cells). Details: 24 h, read-out: Firefly Luciferase IC50 (μM).
Type: cell-based

SMILES	IC50 [µM]
OCCn1nnc(-c2ccccc2Nc2cccc(Cl)c2)n1 [Compound 250, 2-(5-(2-((3-chlorophenyl)amino)phenyl)-2H-tetrazol-2-yl)ethanol]	1 to 5
OCCn1nnc(-c2cnccc2Nc2ccc(C(F)(F)F)cc2)n1 [Compound 78, 2-[5-[4-[4-(trifluoromethyl)anilino]-3-pyridyl]tetrazol-2-yl]ethanol]	1 to 5
NC(=O)Cn1nnc(-c2ccccc2Nc2ccc(C(F)(F)F)cc2)n1 [Compound 102, 2-[5-[2-[4-(trifluoromethyl)anilino]phenyl]tetrazol-2-yl]acetamide]	< 0.1
OCCn1cnc(-c2ccccc2Nc2ccc(C(F)(F)F)cc2)c1 [Compound 197, 2-(4-(2-((4-(trifluoromethyl)phenyl)amino)phenyl)-1H-imidazol-1-yl)ethan-1-ol]	0.1 to 1
OCCn1nnc(-c2cccnc2Nc2ccc(C(F)(F)F)cc2)n1 [Compound 69, 2-(5-(2-((4-(trifluoromethyl)phenyl)amino)pyridin-3-yl)-2H-tetrazol-2-yl)ethanol]	0.1 to 1
OCCn1cnc(-c2ccccc2Nc2cccc(C(F)(F)F)c2)n1 [Compound 39, 2-(3-(2-((3-(trifluoromethyl)phenyl)amino)phenyl)-1H-1,2,4-triazol-1-yl)ethanol]	1 to 5
FC(F)(F)c1ccc(Nc2ccccc2-c2nnn(CCOC3CCNCC3)n2)cc1 [Compound 198, 2-(2-(2-(piperidin-4-yloxy)ethyl)-2H-tetrazol-5-yl)-N-(4-(trifluoromethyl)phenyl)aniline]	0.1 to 1
OCCn1nnc(-c2ccccc2Nc2ccc(Cl)cc2)n1 [Compound 208, 2-(5-(2-((4-chlorophenyl)amino)phenyl)-2H-tetrazol-2-yl)ethan-1-ol]	0.1 to 1
FC(F)OCCn1nnc(-c2ccccc2Nc2ccc(C(F)(F)F)cc2)n1 [Compound 183, 2-(2-(2-(difluoromethoxy)ethyl)-2H-tetrazol-5-yl)-N-(4-(trifluoromethyl)phenyl)aniline]	0.1 to 1

Same assay, conditions: 24 hrs compound treatment, starting from 3 uM, 1:3 dilution, 10 points; read-out: Firefly Luciferase IC50

SMILES	IC50 [µM]
FC(F)(F)c1ccc(Nc2ccccc2-c2nnn(Cc3cccnc3)n2)cc1 [Compound 40, 2-[2-(3-pyridylmethyl)tetrazol-5-yl]-N-[4-(trifluoromethyl)phenyl]aniline]	0.1 to 1
CCOC(=O)Cn1cc(-c2ccccc2Nc2ccc(C(F)(F)F)cc2)c(C)n1 [Compound 76, ethyl 2-[3-methyl-4-[2-[4-(trifluoromethyl)anilino]phenyl]pyrazol-1-yl]acetate]	0.1 to 1
CC(CN)n1nnc(-c2ccccc2Nc2ccc(C(F)(F)F)cc2)n1 (stereo not shown) [Compound 218, 2-(2-(1-aminopropan-2-yl)-2H-tetrazol-5-yl)-N-(4-(trifluoromethyl)phenyl) Aniline]	< 0.1
OC1(Cn2nnc(-c3ccccc3Nc3ccc(C(F)(F)F)cc3)n2)CCOCC1 [Compound 138, 4-[[5-[2-[4-(trifluoromethyl)anilino]phenyl]tetrazol-2-yl]methyl]tetrahydropyran-4-ol]	0.1 to 1
OCCn1nnc(-c2cc(Br)ccc2Nc2ccc(C(F)(F)F)cc2)n1 [Compound 254, 2-[5-[5-bromo-2-[4-(trifluoromethyl)anilino]phenyl]tetrazol-2-yl]ethanol]	< 0.1
FC(F)(F)c1ccc(Nc2ccccc2-c2nnn(C3CCCOC3)n2)cc1 (stereo not shown) [Compound 120, 2-(2-tetrahydropyran-3-yltetrazol-5-yl)-N-[4-(trifluoromethyl)phenyl]aniline]	0.1 to 1
CC(CO)c1nc(-c2ccccc2Nc2ccc(C(F)(F)F)cc2)nn1C (stereo not shown) [Compound 206, 2-(1-methyl-3-(2-((4-(trifluoromethyl)phenyl)amino)phenyl)-1H-1,2,4-triazol-5-yl)propan-1-ol]	1 to 5
CS(=O)(=O)NCCCn1nnc(-c2ccccc2Nc2ccc(C(F)(F)F)cc2)n1 [Compound 109, N-(3-(5-(2-((4-(trifluoromethyl)phenyl)amino)phenyl)-2H-tetrazol-2-yl)propyl)methanesulfonamide]	1 to 5
O[C@H]1CCC[C@H]1n1nnc(-c2ccccc2Nc2ccc(C(F)(F)F)cc2)n1 [Compound 201, (1S,2R)-2-(5-(2-((4-(trifluoromethyl)phenyl)amino)phenyl)-2H-tetrazol-2-yl)cyclopentan-1-ol]	< 0.1
CC(=O)N1CC(O)(Cn2nnc(-c3ccccc3Nc3ccc(C(F)(F)F)cc3)n2)C1 [Compound 161, 1-[3-hydroxy-3-[[5-[2-[4-(trifluoromethyl)anilino]phenyl]tetrazol-2-yl]methyl]azetidin-1-yl]ethanone]	0.1 to 1
FC(F)(F)c1ccc(Nc2ccccc2-c2nnn(C3COC3)n2)cc1 [Compound 123, 2-[2-(oxetan-3-yl)tetrazol-5-yl]-N-[4-(trifluoromethyl)phenyl]aniline]	< 0.1
C[C@@H](O)[C@H](C)n1nnc(-c2ccccc2Nc2ccc(C(F)(F)F)cc2)n1 [Compound 194, (2R,3S)-3-(5-(2-((4-(trifluoromethyl)phenyl)amino)phenyl)-2H-tetrazol-2-yl)butan-2-ol]	< 0.1
OCCn1nnc(-c2cc(C3CC3)ccc2Nc2ccc(C(F)(F)F)cc2)n1 [Compound 255, 2-(5-(5-cyclopropyl-2-((4-(trifluoromethyl)phenyl)amino)phenyl)-2H-tetrazol-2-yl)ethanol]	< 0.1
CO[C@H](C)[C@H](C)n1nnc(-c2ccccc2Nc2ccc(C(F)(F)F)cc2)n1 [Compound 211, 2-(2-((2S,3R)-3-methoxybutan-2-yl)-2H-tetrazol-5-yl)-N-(4-(trifluoromethyl)phenyl)aniline]	0.1 to 1
O=C1NCC(Cn2nnc(-c3ccccc3Nc3ccc(C(F)(F)F)cc3)n2)N1 (stereo not shown) [Compound 167, 4-((5-(2-((4-(trifluoromethyl)phenyl)amino)phenyl)-2H-tetrazol-2-yl)methyl)imidazolidin-2-one]	0.1 to 1
Cn1nc(-c2ccccc2Nc2ccc(C(F)(F)F)cc2)nc1CCO [Compound 205, 2-(1-methyl-3-(2-((4-(trifluoromethyl)phenyl)amino)phenyl)-1H-1,2,4-triazol-5-yl)ethan-1-ol]	1 to 5
OC1(Cn2nnc(-c3ccccc3Nc3ccc(C(F)(F)F)cc3)n2)COC1 [Compound 186, 3-((5-(2-((4-(trifluoromethyl)phenyl)amino)phenyl)-2H-tetrazol-2-yl)methyl) oxetan-3-ol]	< 0.1

SMILES	IC50 [µM]
OCCn1nnc(-c2ccccc2Nc2cccc(C(F)(F)F)c2)n1 [Compound 3, 2-[5-[2-[3-(trifluoromethyl)anilino]phenyl]tetrazol-2-yl]ethanol]	1 to 5
FC(F)(F)c1ccc(Nc2ccccc2-c2nnn(C3CCOCC3)n2)cc1 [Compound 122, 2-(2-tetrahydropyran-4-yltetrazol-5-yl)-N-[4-(trifluoromethyl)phenyl]aniline]	0.1 to 1
[N-]=[N+]=Nc1ccc(Nc2ccccc2-c2nnn(CCO)n2)cc1 [Compound 179, 2-[5-[2-(4-azidoanilino)phenyl]tetrazol-2-yl]ethanol]	0.1 to 1
FC(F)(F)c1ccc(Nc2ccccc2-c2nnn(CC3COC3)n2)cc1 [Compound 166, 2-(2-(oxetan-3-ylmethyl)-2H-tetrazol-5-yl)-N-(4-(trifluoromethyl)phenyl) Aniline]	0.1 to 1
CC(C)C(O)Cn1nnc(-c2ccccc2Nc2ccc(C(F)(F)F)cc2)n1 (stereo not shown) [Compound 141, 3-methyl-1-[5-[2-[4-(trifluoromethyl)anilino]phenyl]tetrazol-2-yl]butan-2-ol]	0.1 to 1
C[C@H]([C@@H](C)O)n1nnc(-c2ccccc2Nc2ccc(C(F)(F)F)cc2)n1 [Compound 193, (2R,3R)-3-(5-(2-((4-(trifluoromethyl)phenyl)amino)phenyl)-2H-tetrazol-2-yl)butan-2-ol]	< 0.1
CCOC(=O)C(C)n1nnc(-c2ccccc2Nc2ccc(C(F)(F)F)cc2)n1 (stereo not shown) [Compound 116, ethyl 2-[5-[2-[4-(trifluoromethyl)anilino]phenyl]tetrazol-2-yl]propanoate]	< 0.1
CN(C)CCCn1nnc(-c2ccccc2Nc2ccc(OC(F)(F)F)cc2)n1 [Compound 63, 2-(2-(3-(dimethylamino)propyl)-2H-tetrazol-5-yl)-N-(4-(trifluoromethoxy)phenyl) Aniline]	1 to 5
OCCn1nnc(-c2ccccc2Nc2cc(Cl)c(Cl)c(Cl)c2)n1 [Compound 253, 2-(5-(2-((3,4,5-trichlorophenyl)amino)phenyl)-2H-tetrazol-2-yl)ethanol]	1 to 5
OCCn1nnc(-c2ccccc2Nc2ccc(SC(F)(F)F)cc2)n1 [Compound 248, 2-(5-(2-((4-((trifluoromethyl)thio)phenyl)amino)phenyl)-2H-tetrazol-2-yl)ethanol]	0.1 to 1
CCC(O)Cn1nnc(-c2ccccc2Nc2ccc(C(F)(F)F)cc2)n1 (stereo not shown) [Compound 139, 1-(5-(2-((4-(trifluoromethyl)phenyl)amino)phenyl)-2H-tetrazol-2-yl)butan-2-ol]	< 0.1
CNCCCn1nnc(-c2ccccc2Nc2ccc(C(F)(F)F)cc2)n1 [Compound 220, 2-(2-(3-(methylamino)propyl)-2H-tetrazol-5-yl)-N-(4-(trifluoromethyl)phenyl) Aniline]	1 to 5
OC(Cn1nnc(-c2ccccc2Nc2ccc(C(F)(F)F)cc2)n1)C1CC1 (stereo not shown) [Compound 127, 1-cyclopropyl-2-[5-[2-[4-(trifluoromethyl)anilino]phenyl]tetrazol-2-yl]ethanol]	< 0.1
NC(=O)NCCn1nnc(-c2ccccc2Nc2ccc(C(F)(F)F)cc2)n1 [Compound 108, 2-[5-[2-[4-(trifluoromethyl)anilino]phenyl]tetrazol-2-yl]ethylurea]	< 0.1
CC(N)Cn1nnc(-c2ccccc2Nc2ccc(C(F)(F)F)cc2)n1 (stereo not shown) [Compound 229, 2-(2-(2-aminopropyl)-2H-tetrazol-5-yl)-N-(4-(trifluoromethyl)phenyl)aniline]	0.1 to 1
COCCn1nnc(-c2ccccc2Nc2ccc(C(F)(F)F)cc2)n1 [Compound 173, 2-(2-(2-methoxyethyl)-2H-tetrazol-5-yl)-N-(4-(trifluoromethyl)phenyl)aniline]	< 0.1
OC1(Cn2nnc(-c3ccccc3Nc3ccc(C(F)(F)F)cc3)n2)CCCOC1 (stereo not shown) [Compound 142, 3-[[5-[2-[4-(trifluoromethyl)anilino]phenyl]tetrazol-2-yl]methyl]tetra hydropyran-3-ol]	0.1 to 1
